Paper PMC10974272, “Cytotoxic and Antiproliferative Activity of LASSBio-2208 and the Attempts to Determine Its Drug Metabolism and Pharmacokinetics In Vitro Profile” (Pharmaceuticals, 2024)
In brackets after ≈: the same amount, converted by molar mass.

How the values were obtained:
[1] = tested on: PC-3; test: SRB cell viability/antiproliferative assay, PC-3; conditions: for Emax: SRB 48 h, PC-3, maximum effect at maximum concentration used
[2] = tested on: CCRF-CEM; test: SRB cell viability/antiproliferative assay, CCRF-CEM; conditions: Homo sapiens, 48 h
[3] = tested on: HDAC-6; conditions: cited from earlier work
[4] = PAMPA—GIT; type: in vitro ADME; conditions: for Papp: PAMPA, read-out: Pe. Exp. GIT
Experimental: To obtain information on the permeability potential of LASSBio-2208 on cell membranes, this derivative was tested using the parallel artificial membrane permeability assay (PAMPA) that is used as an in vitro model of passive diffusion and transcellular permeation. In this model, the permeability across two artificial membranes is measured: brain lipid from pig extract in dodecane (called PAMPA—BBB) and L-α soy phosphatidylcholine in dodecane (called PAMPA—TGI).
To perform the permeability assay we used a donor plate where the compounds (tests or controls) are diluted in a buffered medium, characterized by the presence of a synthetic membrane of polyvinylidene fluoride (PVDF) impregnated with a lipid solution, forming a barrier through which the compounds migrate through a diffusion process to the lower plate called the receptor.
The lipid mixture that impregnates the filter has a different constitution for the permeability tests for the blood–brain barrier (brain lipid from pig extract in dodecane) and gastrointestinal tract (L-α soy phosphatidylcholine in dodecane). In the PAMPA—BBB and PAMPA—GIT assays, the optical density values obtained in the reading at each selected wavelength, for each of the compounds were analysed in comparison with the values of several controls. In the case of the BBB, these values were used to elaborate an equation and determine the permeability coefficient (Pe), using a previously elaborated spreadsheet, and, for the PAMPA—GIT, these values were used to determine the absorbed fraction (Fa%), both using the Excel program. The permeability result for PAMPA—GIT classifies the compounds according to the percentage of absorbed fraction (Fa%), as follows: high intestinal permeability (70–100%), medium permeability (30–69%) or low permeability (0–29%), and the samples were diluted from a stock solution of 10 mM. The PAMPA—BBB model classifies the compounds only as follows: permeable (CNS+) or non-permeable (CNS−) and the assays were made from a stock solution of 1 mg for each compound [25, 40, 41, 42].

[5] = tested on: HDAC8; conditions: cited from earlier work
[6] = tested on: breast cancer cell line (MCF-7); test: MTT cell viability assay, MCF-7; conditions: Homo sapiens
Experimental: (§1) After the incubation time, the plate was centrifuged (Universal centrifuge 320R Hettich, Kirchlengern, Germany) at 440× g, 10 min and 4 °C, then 110 µL of supernatant was removed and 10 µL of MTT solution was added and left to incubate for 3.5 h in the oven at 37 °C and 5% CO2. […] The CC50 was calculated using the GraphPad Prism 9.0 program. Each sample was tested in triplicate in three independent experiments (N3) [32, 33].

[7] = tested on: human leukaemia cell line (CCRF-CEM); test: MTT cell viability assay, CCRF-CEM
Experimental: as §1

[8] = tested on: PC3 prostate carcinoma cell line; parameters: method as in PMID 33919077; conditions: cited from earlier work
[9] = tested on: PI3Kδ; conditions: cited from earlier work
[10] = tested on: PC3 prostate carcinoma cell line; parameters: method as in PMID 33919077; conditions: PC3, flow cytometry, 24 h assay; cited from earlier work
[11] = parameters: method as in PMID 32022441; conditions: cited from earlier work
[12] = tested on: mTOR; conditions: cited from earlier work
[13] = tested on: PI3Kγ; conditions: cited from earlier work
[14] = tested on: PI3Kα; conditions: cited from earlier work
[15] = parameters: method as in PMID 32022441; conditions: cited from earlier work; remark: listed apart in the source
[16] = tested on: PI3Kβ; conditions: cited from earlier work

CN(C)c1ccc(C(=O)N/N=C/c2ccc(C(=O)NO)cc2)cc1 [LASSBio-1911]
CC50 ([1]; Homo sapiens, PC-3, 48 h): > 100 µM
Emax ([1]; Homo sapiens, PC-3, 48 h): < 35%
Emax [1]: 34.04%
CC50 [2]: 25.2 µM
Emax [2]: 69.2%
IC50 [3]: 0.015 µM
Fraction Absorbed [4]: 20.15%
Pe. Exp. GIT [4]: 0.592 10^−6 cm/s
Papp [4]: 0.359 ×10⁻⁶ cm/s
IC50 [5]: 0.23 µM
CC50 ([6]; MCF7, 24 h): > 100 µM
Emax ([6]; MCF7, 24 h): 21.6%
CC50 ([6]; MCF7, 48 h): 42.6 µM
Emax ([6]; MCF7, 48 h): 65.4%
CC50 ([6]; MCF7, 72 h): 38.4 µM
Emax ([6]; MCF7, 72 h): 75.4%
CC50 ([7]; 24 h): 9.69 µM
Emax ([7]; 24 h): 98%
CC50 ([7]; 48 h): 6.98 µM
Emax ([7]; 48 h): 98.8%
CC50 ([7]; 72 h): 6.92 µM
Emax ([7]; 72 h): 97.1%

O=C(NO)c1ccc(/C=N/NC(=O)c2cc(N3CCOCC3)nc(-c3cccc(O)c3)n2)cc1 [LASSBio-2208]
CC50 ([1]; Homo sapiens, PC-3, 48 h): 98.9 µM
Emax ([1]; Homo sapiens, PC-3, 48 h): > 50%
reduction of cell viability ([8]; PC3, MTT 24 h, highest concentration studied (5 µM)): ~50%
effect on cell viability ([8]; PC3, MTT 48 h, 0.01–5 µM): no effect on cell viability
IC50 [9]: 0.0724 µM
CC50 [2]: > 100 µM
cell cycle effect [10]: cell cycle arrest in the G2/M phase
initial cell apoptosis, share of cell population [10]: 60–66%
calculated logP [11]: 1.96
IC50 [12]: 0.464 µM
IC50 [3]: 0.0153 µM
IC50 [13]: 1.3 µM
IC50 [14]: 0.0463 µM
Fraction Absorbed [4]: 13.78%
Papp [4]: 0.39 ×10⁻⁶ cm/s
aqueous solubility (thermodynamic solubility) [15]: 1.81 µM (≈ 0.837 µg/mL)
IC50 [5]: 0.0676 µM
CC50 ([6]; MCF7, 24 h): > 100 µM
Emax ([6]; MCF7, 24 h): 29.5%
CC50 ([6]; MCF7, 48 h): 31.7 µM
Emax ([6]; MCF7, 48 h): 57.3%
CC50 ([6]; MCF7, 72 h): 23 µM
Emax ([6]; MCF7, 72 h): 60.7%
IC50 [16]: 0.0728 µM
CC50 ([7]; 24 h): 27.8 µM
Emax ([7]; 24 h): 69.4%
CC50 ([7]; 48 h): 8.68 µM
Emax ([7]; 48 h): 91.7%
CC50 ([7]; 72 h): 8.54 µM
Emax ([7]; 72 h): 90.4%
